Measurements published in patent publication US9012365B2, “Compatibility agents for herbicidal formulations comprising 2,4-(Dichlorophenoxy) acetic acid salts” (priority 2006, dated 2015).
Where “and” joins values, the source holds several entries; their conditions need not be identical. Equal entries are not always repeated.

Assay: Appearance of 10 g solution of (2.5 wt % ai 2,4-D DMA + tested chemical) after adding 40% AMS
Type: physicochemical
Conditions: 2.5 wt % ai 2,4-D DMA; for Addition Weight of 40% AMS: System was cloud after adding / Addition Weight of 40% AMS: System was clear after adding: 10 g solution
Procedure: In this example, the appearance of a 10 g solution of (2.5 wt % ai 2,4-D DMA+tested chemical) was evaluated after adding 40% AMS

[1] = 0.13 wt % a.i. of tested chemical, 0 gram 40% AMS
[2] = 0.13 wt % a.i. of tested chemical
[3] = 1.25 wt % a.i. of tested chemical
[4] = 0.04 wt % a.i. of tested chemical
[5] = 0.05 wt % a.i. of tested chemical

Row | 0 gram Appearance [1] | Addition Weight of 40% AMS: System was cloud after adding [2] | Addition Weight of 40% AMS: System was clear after adding [2] | Molecule | also measured
1 | Clear | 0.226 grams |  | 2-ethylhexyl glycoside | 
2 | Clear | 0.633 grams |  | 2-propylheptanol-5 EO | 
3 | Clear | 0.526 grams | 0.43 grams | 2-propylheptanol-8EO | 
4 |  |  |  | CCCCCCCCCCCC[N+](C)(C)CC(=O)[O-] [Lauryldimethyl betaine] | 0 gram Appearance [3]: Clear; Addition Weight of 40% AMS: System was clear after adding [3]: 0.693 grams; Addition Weight of 40% AMS: System was cloud after adding [3]: 0.913 grams
5 |  |  |  | CCCCCCCCCCCCOS(=O)(=O)[O-].[Na+] [Sodium lauryl sulfate] | 0 gram Appearance [4]: Clear; Addition Weight of 40% AMS: System was cloud after adding [4]: 0.101 grams
6 | Clear | 0.509 grams |  | Alkyl ether citrate | 
7 | Clear | 0.488 grams |  | C8-10 + 4 EO phosphate ester (acid) | 
8 | Clear | 1.212 grams | 1 grams | C8-10 glycosides [AG 6210] | 
9 | Clear | 0.217 grams |  | C8-10 glycosides [Agnique PG 8166] | 
10 | Clear | 0.272 grams |  | C9-C11 glycoside | 
11 | Clear | 1.226 grams | 1.035 grams | C10-12 alcohol ethoxylate (5EO) | 
12 | Clear | 1.033 grams and 1.026 grams | 0.829 grams and 0.903 grams | C10-12 alcohol ethoxylate (7EO) | 
13 | Clear | 0.72 grams | 0.519 grams | C10-12 alcohol ethoxylate (9EO) | 
14 | Clear | 0.669 grams | 0.619 grams | C10-12 alcohol ethoxylate (12EO) | 
15 | Clear | 0.918 grams | 0.819 grams | C11 alcohol ethoxylate (5EO) | 
16 | very cloudy | 0 grams | very cloudy | Castor oil ethoxylate | 
17 | Clear | 0.521 grams | 0.279 grams | Castor oil ethoxylate-20EO | 
18 | Clear | 0.987 grams | 0.701 grams | Cocamide DEA | 
19 | Clear | 4.058 grams | 3.521 grams | Coco duoamine-3EO | 
20 | Clear | 0.096 grams |  | Cocoamine-2EO oxide | 
21 | Clear | 1.633 grams | 1.478 grams | Cocoamine-5EO | 
22 | Clear | 1.541 grams | 1.454 grams | Cocoamine-10EO | 

Row | 0 gram Appearance [1] | Addition Weight of 40% AMS: System was cloud after adding [2] | Addition Weight of 40% AMS: System was clear after adding [2] | Molecule | also measured
23 | Clear | 1.731 grams | 1.488 grams | Cocodimethylamidopropylamine | 
24 | Clear | 2.123 grams | 2.038 grams | Cocotrimethyl Chloride | 
25 | Clear | 0.829 grams | 0.665 grams | Di (propylene glycol) methyl ether | 
26 | Clear | 0.163 grams |  | Ethoxylated (6EO) caprylic & capric glycerol ester | 
27 | Clear | 1.25 grams | 1.037 grams | Ethoxylated (20EO) sorbitol ester | 
28 | Clear | 0.324 grams |  | Iso C13 + 4EO phosphate ester (acid) | 
29 | Clear | 2.045 grams | 1.732 grams | Iso C13 etheramine-5EO | 
30 |  |  |  | Na Cocoamphocarboxyglycinate | 0 gram Appearance [3]: Clear; Addition Weight of 40% AMS: System was clear after adding [3]: 0.25 grams; Addition Weight of 40% AMS: System was cloud after adding [3]: 0.508 grams
31 |  |  |  | Octyliminodipropionate | 0 gram Appearance [3]: Clear; Addition Weight of 40% AMS: System was clear after adding [3]: 0.283 grams; Addition Weight of 40% AMS: System was cloud after adding [3]: 0.602 grams
32 | Clear | 0.459 grams | 0.261 grams | Oleylamphopolycarboxyglycinate | 
33 | Clear | 0.71 grams | 0.661 grams | Polyoxyethylene Sorbitol Tallate | 
34 | Clear | 0.329 grams |  | Propyl glycosides | 
35 | Clear | 2.546 grams | 1.896 grams | Sodium lauryl olefin sulfonate | 0 gram Appearance [5]: Clear; Addition Weight of 40% AMS: System was clear after adding [5]: 1.526 grams; Addition Weight of 40% AMS: System was cloud after adding [5]: 2.121 grams
36 | Clear | 0.756 grams | 0.482 grams | Soya acid ethoxylate-10EO | 
37 | Clear | 2.243 grams | 1.591 grams | Tall oil fatty acid amidoamine-10EO | 
38 | very cloudy | 0 grams | very cloudy | Tall oil fatty acid-4EO | 
39 | Clear | 1.513 grams | 1.31 grams | Tallowamine-2EO | 
40 | Clear | 1.751 grams | 1.485 grams | Tallowamine-6EO | 
41 | Clear | 1.526 grams | 1.273 grams | Tallowamine-14EO | 
42 | Clear | 2.014 grams | 1.731 grams | Tallowamine-15EO methylchloride | 
43 | cloudy | 0 grams | cloudy | Trideceth-4 | 
44 | Clear | 0.717 grams | 0.47 grams | Trideceth-6 | 

Row | Molecule | 0 gram Appearance [1] | Addition Weight of 40% AMS: System was cloud after adding [2] | Addition Weight of 40% AMS: System was clear after adding [2] | also measured
45 | CCCCOCCOC(C)=O [Butyl cellosolve Acetate (C4—O—C—C—OOCC), Butyl cellosolve Acetate] | Clear | 0.324 grams | 0.162 grams | 
46 | C6-10 isopropylamine alcohol ether sulfate | Clear | 0.712 grams | 0.528 grams | 
47 | Nonylphenol-4EO | cloudy | 0 grams | cloudy | 
48 | Nonylphenol-6EO (5EO) | Hazy | 0 grams | Hazy | 
49 | Nonylphenol-9EO | Clear | 0.601 grams | 0.473 grams | 
50 | Nonylphenol-9EO carboxylate | Clear | 1.692 grams | 1.312 grams | 
51 | Nonylphenol-12EO | Clear | 0.502 grams | 0.415 grams | 
52 | Nonylphenol-30EO | Clear | 0.584 grams | 0.487 grams | 
53 | Phenol ethoxylate | Clear | 0.577 grams |  | 
54 | Sodium xylene sulfonate | Clear | 0.524 grams |  | 
55 | Tallow acid + triethanolamine + 10EO | Clear | 3.049 grams | 2.087 grams | 
